From patent US4374843A, “2-Guanidino-4-heteroarylthiazoles” (Pfizer Inc., priority 1981, dated 1983)
Counter-ions that a name gives are not always drawn.

Assays:
Heidenhain pouch dogs = assay: Gastric acid antisecretory activity in pentagastrin-stimulated Heidenhain pouch dogs; format: in vivo, dog; conditions: Canis lupus familiaris, iv, 1.5 h; 1 mg/kg intravenously, 90 min after start of pentagastrin infusion; lowest acid output after drug vs mean acid output immediately before drug; conscious fasted dogs; read-out: inhibited gastric acid secretion
Description: The gastric acid antisecretory activity of compounds of the present invention was determined in overnight fasted, conscious Heidenhain pouch dogs. Pentagastrin (Pentavlon-Ayerst was used to stimulate acid output by continuous infusion into a superficial leg vein at doses earlier determined to stimulate near maximal acid output from the gastric pouch. Gastric juice was collected at 30 minute intervals following the start of a pentagastrin infusion and measured to the nearest 0.1 ml. Ten collections were taken for each dog during an experiment. Acid concentration was determined by titrating 1.0 ml of gastric juice to pH 7.4 with 0.1 N sodium hydroxide using an Autoburette and a glass electrode pH meter (Radiometer).
Drug or vehicle was given intraveneously 90 minutes following the start of the pentagastrin infusion, at a dose of 1 mg/kg. Gastric acid antisecretory effects were calculated by comparing the lowest acid output after drug administration with the mean acid output immediately before drug.

H2 -receptor = target: T1, H2 -receptor (Cavia porcellus, UniProt P47747); assay: Histamine-H2 antagonist activity in isolated guinea pig right atria; format: cell-based; conditions: histamine dose-response curve in presence and absence of antagonist, 32°; for Kb: Krebs-Henseleit buffer pH 7.4, read-out: pA2 (apparent dissociation constant of the H2-receptor antagonist) (converted)
T1 construct: the heart removed and the right atria dissected free; from tissue; host or cells: isolated guinea pig right atria
T1 sequence (P47747 whole entry): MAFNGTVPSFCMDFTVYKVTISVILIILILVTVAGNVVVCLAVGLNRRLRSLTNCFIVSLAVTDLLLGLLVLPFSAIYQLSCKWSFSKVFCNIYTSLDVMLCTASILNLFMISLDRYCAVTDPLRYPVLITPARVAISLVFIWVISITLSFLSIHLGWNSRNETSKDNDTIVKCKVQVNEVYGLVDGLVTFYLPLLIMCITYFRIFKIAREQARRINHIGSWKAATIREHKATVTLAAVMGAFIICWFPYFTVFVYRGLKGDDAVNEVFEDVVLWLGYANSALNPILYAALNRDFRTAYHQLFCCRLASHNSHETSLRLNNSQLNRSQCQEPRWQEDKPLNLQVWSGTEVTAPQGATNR
Description: The histamine-H2 antagonist activity of compounds of the present invention was determined by the following procedure:
Guinea pigs are killed rapidly with a blow to the head, the heart removed and the right atria dissected free. Atria are suspended, isometrically, in a temperature-controlled (32°±2°) tissue bath (10 ml containing oxygenated (95% O2; 5% CO2) Krebs-Henseleit buffer (pH 7.4) and are allowed to stabilize approximately one hour during which time the tissue bath is flushed several times. Individual atrial contractions are followed with a force-displacement transducer connected to a cardiotachometer and Grass polygraph recorder. After obtaining a dose-response curve to histamine, the bath containing each atrium is flushed several times with fresh buffer and the atria re-equilibrated to basal rates. Following the return to basal rate, test compounds are added at selected final concentrations and the histamine dose-response curve is again determined in the presence of antagonist. Results are expressed as dose-ratios, the ratio of histamine concentrations required to produce one-half of maximal stimulation in the presence and absence of antagonist, and the apparent dissociation constant of the H2 -receptor antagonist pA2, is determined.

Structure (SMILES) | inhibition at 1 mg/kg (Heidenhain pouch dogs) | Kb (H2 -receptor) | pA2 (apparent dissociation constant of the H2-receptor antagonist) (H2 -receptor; Krebs-Henseleit buffer pH 7.4)
CNc1nc(-c2csc(NC(=N)N)n2)c[nH]1 [Example 21, 2-Guanidino-4-(2-N-methylamino-4-imidazoyl)thiazole dihydrochloride] | ≥ 15% | < 2000 nM | 
CCCCNc1nc(-c2csc(NC(=N)N)n2)c[nH]1 [Example 25, 2-Guanidino-4-(2-N-n-butylamino-4-imidazoyl)thiazole dihydrochloride] | ≥ 15% | < 2000 nM | 
CCCNc1nc(-c2csc(NC(=N)N)n2)c[nH]1 [Example 23, 2-(Guanidino-4-(2-N-n-propylamino-4-imidazoyl)thiazoledihydrochloride] | ≥ 15% | < 2000 nM | 
Cc1ncc(-c2csc(N=C(N)N)n2)[nH]1 [Example 37, 2-Guanidino-4-(2-methyl-4-imidazolyl)thiazole] | ≥ 15% | < 2000 nM | 
N=C(N)Nc1nc(-c2c[nH]c(N)n2)cs1 [Example 20, 2-Guanidino-4-(2-amino-4-imidazolyl)thiazole] | ≥ 15% |  | 
N=C(N)Nc1nc(-c2c[nH]c(NCCc3ccccc3)n2)cs1 [Example 27, 2-Guanidino-4-(2-N-phenethylamino-4-imidazoyl)thiazole dihydrochloride] | ≥ 15% | < 2000 nM | 
CCNc1nc(-c2csc(NC(=N)N)n2)c[nH]1 [Example 22, 2-Guanidino-4-(2-N-ethylamino-4-imidazoyl)thiazole dihydrochloride] | ≥ 15% | < 2000 nM | 
CC(=O)Nc1nc(-c2csc(NC(=N)N)n2)cs1 [Example 7, 2-Guanidino-4-(2-N-acetylamino-4-thiazoyl)thiazole] | ≥ 15% | < 2000 nM | 
N=C(N)Nc1nc(-c2cscn2)cs1 [Example 5, 2-Guanidino-4-(4-thiazolyl)thiazole] | ≥ 15% | < 2000 nM | 
CCCc1n[nH]c(-c2csc(NC(=N)N)n2)n1 [Example 15, 2-Guanidino-4-(3-propyl-5-1,2,4-triazolyl)thiazole hemihydrate] | ≥ 15% | < 2000 nM | 
N=C(N)Nc1nc(-c2csc(N)n2)cs1 [Example 4, 2-Guanidino-4-(2-amino-4-thiazolyl)thiazole dihydrobromide] | ≥ 15% | < 2000 nM | 
Cc1nc(C)c(-c2csc(NC(=N)N)n2)[nH]1 [Example 45, 2-Guanidino-4-(2,4-dimethyl-4-imidazolyl)thiazole hydrobromide hemihydrate] | ≥ 15% |  | greater than 5.7
N=C(N)Nc1nc(-c2nc(N)n[nH]2)cs1 [Example 11, 2-Guanidino-4-(3-amino-5-1,2,4-triazolyl)thiazole] | ≥ 15% |  | 
Cc1nc[nH]c1-c1csc(NC(=N)N)n1 [Example 41, 2-Guanidino-4-(4-methyl-5-imidazolyl)thiazole hydrobromide] | ≥ 15% | < 2000 nM | 
N=C(N)Nc1nc(-c2c[nH]c(CO)n2)cs1 [Example 50, 2-Guanidino-4-(2-hydroxymethyl-4-imidazolyl)thiazole hydrobromide] | ≥ 15% | < 2000 nM | 
N=C(N)Nc1nc(-c2c[nH]c(Nc3ccccc3)n2)cs1 [Example 46, 2-Guanidino-4-(2-N-phenylamino-4-imidazolyl)thiazole] |  | < 2000 nM | 
CCc1n[nH]c(-c2csc(NC(=N)N)n2)n1 [Example 17, 2-Guanidino-4-(3-ethyl-5-1,24-triazolyl)thiazole] | ≥ 15% | < 2000 nM | 
CC(=O)Nc1nc(-c2csc(NC(=N)N)n2)c[nH]1 [Example 28, 2-Guanidino-4-(2-N-acetamido-4-imidazoyl)thiazole] | ≥ 15% | < 2000 nM | 
N=C(N)Nc1nc(-c2c[nH]c(NCc3ccccc3)n2)cs1 [Example 26, 2-Guanidino-4-(2-N-benzylamino-4-imidazoyl)thiazole dihydrochloride] | ≥ 15% | < 2000 nM | 
N=C(N)Nc1nc(-c2c[nH]cn2)cs1 [Example 31, 2-Guanidino-4-(4-imidazoyl)thiazole hydrobromide] | ≥ 15% |  | 
CNc1nc(-c2csc(NC(=N)N)n2)cs1 [Example 6, 2-Guanidino-4-(2-N-methylamino-4-thiazoyl)thiazole] | ≥ 15% | < 2000 nM | 
Cc1n[nH]c(-c2csc(NC(=N)N)n2)n1 [Example 13, 2-Guanidino-4-(3-methyl-5-1,2,4-triazolyl)thiazole hemihydrate] | ≥ 15% |  | 
CC(C)Nc1nc(-c2csc(NC(=N)N)n2)c[nH]1 [Example 24, 2-Guanidino-4-(2-N-i-propylamino-4-imidazoyl)thiazole dihydrochloride] | ≥ 15% | < 2000 nM | 
